Experimental data: ChEMBL document CHEMBL1154382, “Preliminary SAR analysis of novel antiproliferative N(6),5'-bis-ureidoadenosine derivatives” (2009)

Experiments:
Assay type in all cases: functional
Settings in all cases: values are per cent of control
CCRF-CEM = experiment: Antiproliferative activity against human CCRF-CEM cells at 10 uM assessed as cell growth inhibition relative to control
HL-60(TB) = experiment: Antiproliferative activity against human HL-60(TB) cells at 10 uM assessed as cell growth inhibition relative to control
K562 = experiment: Antiproliferative activity against human K562 cells at 10 uM assessed as cell growth inhibition relative to control
MOLT-4 = experiment: Antiproliferative activity against human MOLT4 cells at 10 uM assessed as cell growth inhibition relative to control
[1] = Antiproliferative activity against human […] cells at 10 uM assessed as cell growth inhibition relative to control
A549 = experiment: Antiproliferative activity against human A549 cells at 10 uM assessed as cell growth inhibition relative to control
EKVX = experiment: Antiproliferative activity against human EKVX cells at 10 uM assessed as cell growth inhibition relative to control
PC-3 = experiment: Antiproliferative activity against human PC3 cells at 10 uM assessed as cell growth inhibition relative to control
HOP-62 = experiment: Antiproliferative activity against human HOP62 cells at 10 uM assessed as cell growth inhibition relative to control
HOP-92 = experiment: Antiproliferative activity against human HOP92 cells at 10 uM assessed as cell growth inhibition relative to control
NCI-H226 = experiment: Antiproliferative activity against human NCI-H226 cells at 10 uM assessed as cell growth inhibition relative to control
NCI-H23 = experiment: Antiproliferative activity against human NCI-H23 cells at 10 uM assessed as cell growth inhibition relative to control
NCI-H322M = experiment: Antiproliferative activity against human NCI-H322M cells at 10 uM assessed as cell growth inhibition relative to control
NCI-H460 = experiment: Antiproliferative activity against human NCI-H460 cells at 10 uM assessed as cell growth inhibition relative to control
NCI-H522 = experiment: Antiproliferative activity against human NCI-H522 cells at 10 uM assessed as cell growth inhibition relative to control
COLO 205 = experiment: Antiproliferative activity against human COLO205 cells at 10 uM assessed as cell growth inhibition relative to control
HCC 2998 = experiment: Antiproliferative activity against human HCC2998 cells at 10 uM assessed as cell growth inhibition relative to control
HCT-116 = experiment: Antiproliferative activity against human HCT116 cells at 10 uM assessed as cell growth inhibition relative to control
HCT-15 = experiment: Antiproliferative activity against human HCT15 cells at 10 uM assessed as cell growth inhibition relative to control
HT-29 = experiment: Antiproliferative activity against human HT-29 cells at 10 uM assessed as cell growth inhibition relative to control
KM12 = experiment: Antiproliferative activity against human KM12 cells at 10 uM assessed as cell growth inhibition relative to control
SW-620 = experiment: Antiproliferative activity against human SW620 cells at 10 uM assessed as cell growth inhibition relative to control
LOX IMVI = experiment: Antiproliferative activity against human LOXIMVI cells at 10 uM assessed as cell growth inhibition relative to control
Malme-3M = experiment: Antiproliferative activity against human MALME-3M cells at 10 uM assessed as cell growth inhibition relative to control
M14 = experiment: Antiproliferative activity against human M14 cells at 10 uM assessed as cell growth inhibition relative to control
SK-MEL-2 = experiment: Antiproliferative activity against human SK-MEL-2 cells at 10 uM assessed as cell growth inhibition relative to control
SK-MEL-28 = experiment: Antiproliferative activity against human SK-MEL-28 cells at 10 uM assessed as cell growth inhibition relative to control
SK-MEL-5 = experiment: Antiproliferative activity against human SK-MEL-5 cells at 10 uM assessed as cell growth inhibition relative to control
UACC-257 = experiment: Antiproliferative activity against human UACC257 cells at 10 uM assessed as cell growth inhibition relative to control
UACC-62 = experiment: Antiproliferative activity against human UACC62 cells at 10 uM assessed as cell growth inhibition relative to control
SF-268 = experiment: Antiproliferative activity against human SF268 cells at 10 uM assessed as cell growth inhibition relative to control
SF-295 = experiment: Antiproliferative activity against human SF295 cells at 10 uM assessed as cell growth inhibition relative to control
SF-539 = experiment: Antiproliferative activity against human SF539 cells at 10 uM assessed as cell growth inhibition relative to control
SNB-19 = experiment: Antiproliferative activity against human SNB19 cells at 10 uM assessed as cell growth inhibition relative to control
SNB-75 = experiment: Antiproliferative activity against human SNB75 cells at 10 uM assessed as cell growth inhibition relative to control
U-251 = experiment: Antiproliferative activity against human U251 cells at 10 uM assessed as cell growth inhibition relative to control
IGROV-1 = experiment: Antiproliferative activity against human IGROV1 cells at 10 uM assessed as cell growth inhibition relative to control
OVCAR-3 = experiment: Antiproliferative activity against human OVCAR-3 cells at 10 uM assessed as cell growth inhibition relative to control
OVCAR-4 = experiment: Antiproliferative activity against human OVCAR4 cells at 10 uM assessed as cell growth inhibition relative to control
OVCAR-5 = experiment: Antiproliferative activity against human OVCAR5 cells at 10 uM assessed as cell growth inhibition relative to control
OVCAR-8 = experiment: Antiproliferative activity against human OVCAR8 cells at 10 uM assessed as cell growth inhibition relative to control
SK-OV-3 = experiment: Antiproliferative activity against human SKOV3 cells at 10 uM assessed as cell growth inhibition relative to control
786-0 = experiment: Antiproliferative activity against human 786-0 cells at 10 uM assessed as cell growth inhibition relative to control
A498 = experiment: Antiproliferative activity against human A498 cells at 10 uM assessed as cell growth inhibition relative to control
ACHN = experiment: Antiproliferative activity against human ACHN cells at 10 uM assessed as cell growth inhibition relative to control
CAKI-1 = experiment: Antiproliferative activity against human Caki1 cells at 10 uM assessed as cell growth inhibition relative to control
RXF 393 = experiment: Antiproliferative activity against human RXF393 cells at 10 uM assessed as cell growth inhibition relative to control
SN12C = experiment: Antiproliferative activity against human SN12C cells at 10 uM assessed as cell growth inhibition relative to control
TK-10 = experiment: Antiproliferative activity against human TK10 cells at 10 uM assessed as cell growth inhibition relative to control
UO-31 = experiment: Antiproliferative activity against human UO31 cells at 10 uM assessed as cell growth inhibition relative to control
BT-549 = experiment: Antiproliferative activity against human BT549 cells at 10 uM assessed as cell growth inhibition relative to control
[2] = Antiproliferative activity against human Hs 578T cells at 10 uM assessed as cell growth inhibition relative to control
MCF7 = experiment: Antiproliferative activity against human MCF7 cells at 10 uM assessed as cell growth inhibition relative to control
MDA-MB-231 = experiment: Antiproliferative activity against human MDA-MB-231 cells at 10 uM assessed as cell growth inhibition relative to control
MDA-MB-468 = experiment: Antiproliferative activity against human MDA-MB-468 cells at 10 uM assessed as cell growth inhibition relative to control
T47D = experiment: Antiproliferative activity against human T47D cells at 10 uM assessed as cell growth inhibition relative to control
DU-145 = experiment: Antiproliferative activity against human DU145 cells at 10 uM assessed as cell growth inhibition relative to control

## CCOC(=O)C[C@H]1[C@@H](O[Si](C)(C)C(C)(C)C)[C@H](n2cnc3c(N)ncnc32)O[C@@H]1CNC(=O)NC
CCRF-CEM
  growth, % of control at 10 µM: 98%
HL-60(TB)
  growth, % of control at 10 µM: 107%
K562
  growth, % of control at 10 µM: 106%
MOLT-4
  growth, % of control at 10 µM: 108%
[1]
  growth, % of control at 10 µM: 98%
A549
  growth, % of control at 10 µM: 84%
EKVX
  growth, % of control at 10 µM: 92%
PC-3
  growth, % of control at 10 µM: 98%
HOP-62
  growth, % of control at 10 µM: 84%
HOP-92
  growth, % of control at 10 µM: 94%
NCI-H226
  growth, % of control at 10 µM: 99%
NCI-H23
  growth, % of control at 10 µM: 97%
NCI-H322M
  growth, % of control at 10 µM: 94%
NCI-H460
  growth, % of control at 10 µM: 111%
NCI-H522
  growth, % of control at 10 µM: 79%
COLO 205
  growth, % of control at 10 µM: 117%
HCC 2998
  growth, % of control at 10 µM: 84%
HCT-116
  growth, % of control at 10 µM: 100%
HCT-15
  growth, % of control at 10 µM: 97%
HT-29
  growth, % of control at 10 µM: 111%
KM12
  growth, % of control at 10 µM: 103%
SW-620
  growth, % of control at 10 µM: 96%
LOX IMVI
  growth, % of control at 10 µM: 92%
Malme-3M
  growth, % of control at 10 µM: 95%
M14
  growth, % of control at 10 µM: 106%
SK-MEL-2
  growth, % of control at 10 µM: 91%
SK-MEL-28
  growth, % of control at 10 µM: 107%
SK-MEL-5
  growth, % of control at 10 µM: 94%
UACC-257
  growth, % of control at 10 µM: 86%
UACC-62
  growth, % of control at 10 µM: 80%
SF-268
  growth, % of control at 10 µM: 97%
SF-295
  growth, % of control at 10 µM: 101%
SF-539
  growth, % of control at 10 µM: 97%
SNB-19
  growth, % of control at 10 µM: 99%
SNB-75
  growth, % of control at 10 µM: 86%
U-251
  growth, % of control at 10 µM: 98%
IGROV-1
  growth, % of control at 10 µM: 97%
OVCAR-3
  growth, % of control at 10 µM: 98%
OVCAR-4
  growth, % of control at 10 µM: 99%
OVCAR-5
  growth, % of control at 10 µM: 87%
OVCAR-8
  growth, % of control at 10 µM: 100%
SK-OV-3
  growth, % of control at 10 µM: 110%
786-0
  growth, % of control at 10 µM: 93%
A498
  growth, % of control at 10 µM: 109%
ACHN
  growth, % of control at 10 µM: 90%
CAKI-1
  growth, % of control at 10 µM: 96%
RXF 393
  growth, % of control at 10 µM: 138%
SN12C
  growth, % of control at 10 µM: 88%
TK-10
  growth, % of control at 10 µM: 101%
UO-31
  growth, % of control at 10 µM: 87%
BT-549
  growth, % of control at 10 µM: 85%
[2]
  growth, % of control at 10 µM: 98%
MCF7
  growth, % of control at 10 µM: 87%
MDA-MB-231
  growth, % of control at 10 µM: 96%
MDA-MB-468
  growth, % of control at 10 µM: 92%
T47D
  growth, % of control at 10 µM: 95%
DU-145
  growth, % of control at 10 µM: 98%
